Where two headings read alike, the source gives them in different places.
Experiments:
[1] = target: hLPAR1 (human lysophosphatidic acid receptor 1) (Homo sapiens, UniProt Q92633); assay: FLIPR assay of intracellular calcium increase induced by activation of hLPAR1 expressed in CHO-K1 cells; type: cell-based; conditions: CHO-K1 cells expressing hLPAR1, agonist oleoyl-L-α-lysophosphatidic acid 1 μM
Experimental: The antagonist property of the compounds disclosed herein was determined using the FLIPR (fluorescence imaging plate reader) method, wherein the compounds are inhibitors for the intracellular calcium increase induced by activation of hLPAR1 (human lysophosphatidic acid receptor 1, accession No. NM_001401.4) expressed in CHO-K1 cells (Chinese hamster ovary cells K1, ATCC).
Cells at 250,000 cells/mL were seeded into a 96-well plate (25,000 cells/well) 18-24 h prior to the FLIPR experiment and then incubated overnight in a cell incubator. […] Each well was added with 75 μL of […] Fluo-4 AM fluorescent dye (Thermo, F14202) and then the cells were subjected to dye-loading incubation at 37° C. for 1.0 h. The 96-well plate was then washed once with buffer, added with a buffer containing a test compound or a vehicle at 50 μL per well and then incubated for 30 min at room temperature. […] An agonist (oleoyl-L-α-lysophosphatidic acid sodium salt (Sigma, L7260)) at a final concentration of 1 μM or a vehicle (ultrapure water) was then added at 50 μL/well, fluorescence values were measured for 2 min at 1-second intervals, and finally the output fluorescence counts were analyzed.

[2] = test system: A2058 (human melanoma cells); assay: A2058 cell scratch (migration) assay with LPA; type: cell-based; conditions: 10 μM LPA, scratch area at 24 h
Experimental: The activity of the compounds disclosed herein at the cell level in vitro is evaluated by A2058 (human melanoma cells, Beina Bio, BNCC341099) cell scratch assay. The inhibitory activity of the compounds against LPAR1 can be reflected by inhibition of cell scratch healing.
After the cell confluence reached 80%, the cell culture plate was taken out and the original medium was discarded. Serum-free medium was then added, and the cells were starved overnight in an incubator (37° C., 5% CO2). The cell culture plate was then taken out, and cell scratches were made along the diameter of the wells using a 200 μL pipette tip. The cell culture plate was then added with 500 μL of serum-free medium and then shaken gently to wash away the residual cells on the scratched surface, and this was repeated twice. The medium was discarded and 500 μL of 1% FBS medium containing the compound was then added, and the mixture was incubated at 37° C. for 30 min. […] Olympus CKX53 was used to observe the scratches, and MShot image analysis system was used to take pictures and measure the scratch area at 0 h. The plate was incubated in the incubator under the conditions of 37° C. and 5% CO2. 24 h later, the scratches were observed again with Olympus CKX53, and MShot image analysis system was used to take pictures and measure the scratch area at 24 h. Cell migration inhibition rate was calculated according to the following formula: […]

Sequence of hLPAR1 (human lysophosphatidic acid receptor 1) (Q92633 whole entry): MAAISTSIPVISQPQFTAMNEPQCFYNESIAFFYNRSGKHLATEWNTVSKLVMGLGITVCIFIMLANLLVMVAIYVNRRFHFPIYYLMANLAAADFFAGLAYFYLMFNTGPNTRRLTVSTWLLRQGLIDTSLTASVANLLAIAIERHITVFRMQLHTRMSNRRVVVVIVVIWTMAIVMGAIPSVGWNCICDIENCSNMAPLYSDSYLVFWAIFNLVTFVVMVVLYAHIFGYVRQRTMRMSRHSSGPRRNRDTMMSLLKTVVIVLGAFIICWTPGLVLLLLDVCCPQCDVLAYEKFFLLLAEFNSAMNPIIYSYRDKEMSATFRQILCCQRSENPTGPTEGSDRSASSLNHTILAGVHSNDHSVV

| IC50 ([1]; read-out: LPAR1 IC50) [µM] | Structure (SMILES) | Cell migration inhibition rate (%) [2] | IC50 ([1]; LPAR1 IC50 (μM)) [µM] |
| --- | --- | --- | --- |
| < 0.05 | Cc1nsc(-c2ccc(O[C@H]3CCC[C@H](C(=O)O)C3)c(C(F)(F)F)n2)c1COC(=O)N(C)C1CCCC1 (racemic) [Compound 84] |  |  |
| < 0.05 | Cc1noc(-c2ccc(O[C@H]3CCC[C@H](C(=O)O)C3)c(F)c2)c1COC(=O)N(C)C1CCCC1 (racemic) [Compound 86] |  |  |
| < 0.05 | Cc1onc(-c2cnc(O[C@H]3CCC[C@H](C(=O)O)C3)cn2)c1COC(=O)N(C)C1CCCC1 (racemic) [Compound 102] | A (A: 50-70%) |  |
| 0.3 to 10 | CN(C(=O)OCc1c(-c2cnc(O[C@H]3CCC[C@H](C(=O)O)C3)c(O)n2)cnn1C)C1CCCC1 (racemic) [Compound 117] | B (B: 30-50%) |  |
| < 0.05 | Cc1nc(-c2onc(C)c2COC(=O)N(C)C2CCCC2)cnc1O[C@H]1CCC[C@H](C(=O)O)C1 (racemic) [Compound 90] |  |  |
| 0.05 to 0.3 | CN(C(=O)OCc1c(-c2ccc(O[C@H]3CCC[C@H](C(=O)O)C3)c(C#N)n2)cnn1C)C1CCC1 (racemic) [Compound 112, (+/−)-(1S,3S)-3-((2-cyano-6-(5-(((cyclobutyl(methyl)carbamoyl)oxy)methyl)-1-methyl-1H-pyrazol-4-yl)pyridin-3-yl)oxy)cyclohexane-1-carboxylic Acid] | B (B: 30-50%) |  |
| 0.3 to 10 | CN(C(=O)OCc1cncnc1-c1ccc(O[C@H]2CCC[C@H](C(=O)O)C2)cc1)C1CCCC1 (racemic) [Compound 76] |  |  |
| < 0.05 | CN(CC1CCCC1)C(=O)OCc1c(-c2ccc(O[C@H]3CCC[C@H](C(=O)O)C3)c(F)n2)cnn1C (racemic) [Compound 77] |  |  |
| < 0.05 | Cc1nc(-c2onc(C)c2COC(=O)N(C)C2CCCC2)ncc1O[C@H]1CCC[C@H](C(=O)O)C1 (racemic) [Compound 91, (+/−)-(1S,3S)-3-((2-(4-(((cyclopentyl(methyl)carbamoyl)oxy)methyl)-3-methylisoxazol-5-yl)-4-methylpyrimidin-5-yl)ox)cyclohexane-1-carboxylic Acid] | C (C: 0-30%) |  |
| < 0.05 | Cc1onc(-c2cnc(O[C@H]3CCC[C@H](C(=O)O)C3)c(F)n2)c1COC(=O)N(C)C1CCCC1 (racemic) [Compound 101] |  |  |
| 0.3 to 10 | Cc1ccn(-c2ccc(O[C@H]3CCC[C@H](C(=O)O)C3)cc2)c1N(C)C(=O)OC1CCCC1 (racemic) [Compound 71] |  |  |
| 0.05 to 0.3 | Cc1nsc(-c2ccc(O[C@H]3CCC[C@H](C(=O)O)C3)cn2)c1COC(=O)N(C)C1CCCC1 (racemic) [Compound 83] |  |  |
| 0.3 to 10 | CN(C(=O)OCc1c(-c2ccc(O[C@H]3CCC[C@H](C(=O)O)C3)c(F)n2)cnn1C)C1CC1 (racemic) [Compound 108, (+/−) (1S,3S)-3-((6-(5-(((cyclopropyl(methyl)carbamoyl)oxy)methyl)-1-methyl-1H-pyrazol-4-yl)-2-fluoropyridin-3-yl)oxy)cyclohexane-1-carboxylic Acid] | B (B: 30-50%) |  |
| 0.05 to 0.3 | CN(C(=O)OCc1c(-c2ccc(O[C@H]3CCC[C@H](C(=O)O)C3)c(F)n2)cnn1C)C1CCC1 (racemic) [Compound 109, (+/−)-(1S,3S)-3-((6-(5-(((cyclobutyl(methyl)carbamoyl)oxy)methyl)-1-methyl-1H-pyrazol-4-yl)-2-fluoropyridin-3-yl)oxy)cyclohexane-1-carboxylic Acid] | A (A: 50-70%) |  |
| 0.3 to 10 | CN(C(=O)OCc1c(-c2ccc(O[C@H]3CCC[C@H](C(=O)O)C3)c(CO)n2)cnn1C)C1CCC1 (racemic) [Compound 116, (+/−)-(1S,3S)-3-((6-(5-(((cyclobutyl(methyl)carbamoyl)oxy)methyl)-1-methyl-1H-pyrazol-4-yl)-2-(hydroxymethyl)pyridin-3-yl)oxy)cyclohexane-1-carboxylic Acid] | B (B: 30-50%) |  |
| < 0.05 | Cc1onc(-c2ccc(O[C@H]3CCC[C@H](C(=O)O)C3)c(C(F)(F)F)n2)c1COC(=O)N(C)C1CCCC1 [Compound 80] |  |  |
| 0.3 to 10 | Cc1nc(-c2c(COC(=O)N(C)C3CCCC3)n(C)[nH]c2=O)ccc1O[C@H]1CCC[C@H](C(=O)O)C1 (racemic) [Compound 99] |  |  |
| 0.3 to 10 | Cc1nc(-c2cnn(C)c2COC(=O)N(C)C2CCOCC2)ccc1O[C@H]1CCC[C@H](C(=O)O)C1 [Compound 95, (1S,3S)-3-((2-methyl-6-(1-methyl-5-(((methyl(tetrahydro-2H-pyran-4-yl)carbamoyl)oxy)methyl)-1H-pyrazol-4-yl)pyridin-3-yl)oxy)cyclohexane-1-carboxylic Acid] | C (C: 0-30%) |  |

| IC50 ([1]; read-out: LPAR1 IC50) [µM] | Structure (SMILES) | Cell migration inhibition rate (%) [2] | IC50 ([1]; LPAR1 IC50 (μM)) [µM] |
| --- | --- | --- | --- |
| 0.3 to 10 | Cc1nc(-c2cnn(C)c2COC(=O)N(C)C2COC2)ccc1O[C@H]1CCC[C@H](C(=O)O)C1 (racemic) [Compound 64, (+/−)-(1S,3S)-3-((2-methyl-6-(1-methyl-5-(((methyl(oxetan-3-yl)carbamoyl)oxy)methyl)-1H-pyrazol-4-yl)pyridin-3-yl)oxy)cyclohexane-1-carboxylic Acid] | C (C: 0-30%) |  |
| 0.3 to 10 | CN(C(=O)OCc1c(-c2ccc(O[C@H]3CCC[C@H](C(=O)O)C3)c(N3CC(O)C3)n2)cnn1C)C1CCC1 (racemic) [Compound 107] |  |  |
| < 0.05 | Cc1onc(-c2ccc(O[C@H]3CCC[C@H](C(=O)O)C3)cn2)c1COC(=O)N(C)C1CCCC1 (racemic) [Compound 79] |  |  |
|  | Cc1noc(-c2ccc(O[C@H]3CCC[C@H](C(=O)O)C3)cc2)c1OC(=O)N(C)C1CCCC1 (racemic) [Compound 69] |  | 0.3 to 10 |
| 0.3 to 10 | CN(C(=O)OCc1cnncc1-c1ccc(O[C@H]2CCC[C@H](C(=O)O)C2)cc1)C1CCCC1 (racemic) [Compound 74] |  |  |
| 0.05 to 0.3 | Cc1nc(-c2c(N)nn(C)c2COC(=O)N(C)C2CCCC2)ccc1O[C@H]1CCC[C@H](C(=O)O)C1 (racemic) [Compound 87] |  |  |
| 0.3 to 10 | CN(C(=O)OCc1c(-c2ccc(C3CCC[C@H](C(=O)O)C3)cc2)cnn1C)C1CCCC1 (mixture of isomers) [Compound 73] |  |  |
| 0.05 to 0.3 | CN(CC1CCCC1)C(=O)OCc1c(-c2ccc(O[C@H]3CCC[C@H](C(=O)O)C3)c(C#N)n2)cnn1C [Compound 78] |  |  |
| < 0.05 | Cc1snc(-c2ccc(O[C@H]3CCC[C@H](C(=O)O)C3)c(C(F)(F)F)n2)c1COC(=O)N(C)C1CCCC1 [Compound 82] |  |  |
| 0.3 to 10 | CN(C(=O)OCc1oncc1-c1ccc(O[C@H]2CCC[C@H](C(=O)O)C2)cc1)C1CCCC1 (racemic) [Compound 72] |  |  |
| 0.3 to 10 | Cc1nc(-c2cnn(C)c2COC(=O)N2CC3CCC2CO3)ccc1O[C@H]1CCC[C@H](C(=O)O)C1 (mixture of isomers) [Compound 96] |  |  |
|  | CN(C(=O)OCc1cnccc1-c1ccc(O[C@H]2CCC[C@H](C(=O)O)C2)cc1)C1CCCC1 [Compound 75] |  | 0.3 to 10 |
| < 0.05 | CN(C(=O)OCc1c(-c2cnc(O[C@H]3CCC[C@H](C(=O)O)C3)c(F)n2)cnn1C)C1CCCC1 (racemic) [Compound 103, (+/−)-(1S,3S)-3-((5-(5-(((cyclopentyl(methyl)carbamoyl)oxy)methyl)-1-methyl-1H-pyrazol-4-yl)-3-fluoropyrazin-2-yl)oxy)cyclohexane-1-carboxylic Acid] |  |  |
| 0.3 to 10 | CN(Cc1ccccc1)C(=O)OCc1oncc1-c1ccc(O[C@H]2CCC[C@H](C(=O)O)C2)cc1 (racemic) [Compound 68] |  |  |
| 0.05 to 0.3 | Cc1nc(-c2c(C(F)(F)F)nn(C)c2COC(=O)N(C)C2CCCC2)ccc1O[C@H]1CCC[C@H](C(=O)O)C1 (racemic) [Compound 85] |  |  |
| 0.3 to 10 | Cc1cnn(-c2ccc(O[C@H]3CCC[C@H](C(=O)O)C3)cc2)c1N(C)C(=O)OC1CCCC1 (racemic) [Compound 70] |  |  |
| 0.3 to 10 | CN(C(=O)OCc1c(-c2ccc(O[C@H]3CCC[C@H](C(=O)O)C3)c(OCCO)n2)cnn1C)C1CCC1 (racemic) [Compound 111] |  |  |
| 0.05 to 0.3 | Cc1snc(-c2ccc(O[C@H]3CCC[C@H](C(=O)O)C3)cn2)c1COC(=O)N(C)C1CCCC1 (racemic) [Compound 81] |  |  |
